Publication PMC6832920, “Synthesis, Docking Studies, and In Vitro Evaluation of Some Novel Thienopyridines and Fused Thienopyridine–Quinolines as Antibacterial Agents and DNA Gyrase Inhibitors” (Molecules, 2019)
Converted amounts (≈) assume the structure as drawn.

Key:
Escherichia coli 8739 [1] = experiment: agar disc-diffusion antibacterial assay; assay type: cell-based; conditions: E. coli 8739, disc loaded with 100 μg, 37 °C, 24 h, read-out: diameter of inhibition zone
Procedure: (§1) The clinical control strains of Gram-negative bacteria (Escherichia coli 8739, Salmonella typhimurium 14028, Pseudomonas aeruginosa 27853) and Gram-positive bacteria (Bacillus subtilis 6633, Bacillus cereus 33018, Staphylococcus aureus 25923), were obtained from microbial inoculums by subculturing microorganisms into nutrient broth (NB) at 37 °C for 18 h, and were adjusted to 0.125 A° at 625 nm (equivalent to a McFarland 0.5) in 2-fold NB. A 100 μL measure of NB containing each test microorganism was added to the sterile Petri dishes. Antibacterial testing was carried out on all compounds (3a,b–14) using the agar disc-diffusion method [40]. Sterile nutrients were inoculated with 100 μL cell suspension of the chosen test microorganism and poured into Petri dishes (20 cm diameter). Filter paper discs (Whatman, No.3, diameter 5 mm) were loaded with 10 μL containing 100 μg of the tested compounds, as well as the standard drug. Composite compound disks were placed on the surface of inoculated agar plates and kept at low temperatures before incubation in order to support the swelling and diffusion of the microbial growth. The plates were incubated at 37 °C in the incubator. Experiments were performed in duplicate and the diameters of inhibition zones were measured after 24 h. A diameter of inhibition zone (DIZ) assay was performed to evaluate the antimicrobial potential of the compounds against the tested organisms compared with reference antibiotics.

[2] = system: Staphylococcus aureus 25923; experiment: MIC determination by dilution procedure; assay type: cell-based; conditions: Staphylococcus aureus, 25923, S. aureus 25923; dilutions 125-1.95 μg/mL; read-out: minimum inhibitory concentration (MIC)
Procedure: (§2) A 100 μL measure of NB containing each test microorganism was added to the sterile Petri dishes. Antibacterial testing was carried out on all compounds (3a,b–14) using the agar disc-diffusion method [40]. Sterile nutrients were inoculated with 100 μL cell suspension of the chosen test microorganism and poured into Petri dishes (20 cm diameter). Filter paper discs (Whatman, No.3, diameter 5 mm) were loaded with 10 μL containing 100 μg of the tested compounds, as well as the standard drug. Composite compound disks were placed on the surface of inoculated agar plates and kept at low temperatures before incubation in order to support the swelling and diffusion of the microbial growth. The plates were incubated at 37 °C in the incubator. Experiments were performed in duplicate and the diameters of inhibition zones were measured after 24 h. A diameter of inhibition zone (DIZ) assay was performed to evaluate the antimicrobial potential of the compounds against the tested organisms compared with reference antibiotics.

[3] = system: Staphylococcus aureus 25923; experiment: agar disc-diffusion antibacterial assay; assay type: cell-based; conditions: S. aureus 25923, disc loaded with 100 μg, 37 °C, 24 h, read-out: diameter of inhibition zone
Procedure: as §1

Bacillus cereus 33018 [4] = experiment: agar disc-diffusion antibacterial assay; assay type: cell-based; conditions: B. cereus 33018, disc loaded with 100 μg, 37 °C, 24 h, read-out: diameter of inhibition zone
Procedure: as §2

Bacillus cereus 33018 [5] = experiment: MIC determination by dilution procedure; assay type: cell-based; conditions: B. cereus 33018, dilutions 125-1.95 μg/mL, read-out: minimum inhibitory concentration (MIC)
Procedure: as §2

[6] = system: Salmonella typhimurium 14028; experiment: MIC determination by dilution procedure; assay type: cell-based; conditions: Salmonella enterica; S. typhimurium 14028; dilutions 125-1.95 μg/mL; read-out: minimum inhibitory concentration (MIC)
Procedure: (§3) The clinical control strains of Gram-negative bacteria (Escherichia coli 8739, Salmonella typhimurium 14028, Pseudomonas aeruginosa 27853) and Gram-positive bacteria (Bacillus subtilis 6633, Bacillus cereus 33018, Staphylococcus aureus 25923), were obtained from microbial inoculums by subculturing microorganisms into nutrient broth (NB) at 37 °C for 18 h, and were adjusted to 0.125 A° at 625 nm (equivalent to a McFarland 0.5) in 2-fold NB. A 100 μL measure of NB containing each test microorganism was added to the sterile Petri dishes. Antibacterial testing was carried out on all compounds (3a,b–14) using the agar disc-diffusion method [40]. Sterile nutrients were inoculated with 100 μL cell suspension of the chosen test microorganism and poured into Petri dishes (20 cm diameter). Filter paper discs (Whatman, No.3, diameter 5 mm) were loaded with 10 μL containing 100 μg of the tested compounds, as well as the standard drug. Composite compound disks were placed on the surface of inoculated agar plates and kept at low temperatures before incubation in order to support the swelling and diffusion of the microbial growth. The plates were incubated at 37 °C in the incubator. Experiments were performed in duplicate and the diameters of inhibition zones were measured after 24 h.

Bacillus subtilis 6633 [7] = experiment: agar disc-diffusion antibacterial assay; assay type: cell-based; conditions: B. subtilis 6633, disc loaded with 100 μg, 37 °C, 24 h, read-out: diameter of inhibition zone
Procedure: as §2

Escherichia coli 8739 [8] = experiment: MIC determination by dilution procedure; assay type: cell-based; conditions: E. coli 8739, dilutions 125-1.95 μg/mL, read-out: minimum inhibitory concentration (MIC)
[9] = system: Pseudomonas aeruginosa 27853; experiment: MIC determination by dilution procedure; assay type: cell-based; conditions: Pseudomonas aeruginosa, 27853, P. aeruginosa 27853; dilutions 125-1.95 μg/mL; read-out: minimum inhibitory concentration (MIC)
DNA gyrase from E. coli = biological target: T1, DNA gyrase from E. coli (Escherichia coli, UniProt P0AES6); experiment: Escherichia coli DNA gyrase supercoiling inhibition assay; assay type: biochemical
T1 construct: purchased TopoGEN

Bacillus subtilis 6633 [10] = experiment: MIC determination by dilution procedure; assay type: cell-based; conditions: B. subtilis 6633, dilutions 125-1.95 μg/mL, read-out: minimum inhibitory concentration (MIC)
Procedure: as §2

[11] = system: Pseudomonas aeruginosa 27853; experiment: agar disc-diffusion antibacterial assay; assay type: cell-based; conditions: P. aeruginosa 27853, disc loaded with 100 μg, 37 °C, 24 h, read-out: diameter of inhibition zone
Procedure: as §1

[12] = system: Salmonella typhimurium 14028; experiment: agar disc-diffusion antibacterial assay; assay type: cell-based; conditions: Salmonella enterica; S. typhimurium 14028; disc loaded with 100 μg; 37 °C, 24 h; read-out: diameter of inhibition zone
Procedure: as §3

[13] = system: methicillin-resistant Staphylococcus aureus (MRSA); experiment: inhibition zones against MRSA (disc diffusion); assay type: cell-based

| Compound | zone of inhibition at 100 µg/disc (Escherichia coli 8739 [1]) | MIC [2] | zone of inhibition at 100 µg/disc [3] | zone of inhibition at 100 µg/disc (Bacillus cereus 33018 [4]) | MIC (Bacillus cereus 33018 [5]) | MIC [6] | zone of inhibition at 100 µg/disc (Bacillus subtilis 6633 [7]) | MIC (Escherichia coli 8739 [8]) | MIC [9] | IC50 (DNA gyrase from E. coli) | MIC (Bacillus subtilis 6633 [10]) | zone of inhibition at 100 µg/disc [11] | zone of inhibition at 100 µg/disc [12] | melting point | zone of inhibition against MRSA [13] |
| --- | --- | --- | --- | --- | --- | --- | --- | --- | --- | --- | --- | --- | --- | --- | --- |
| COc1ccc(-c2cc(-c3ccco3)nc3sc(C(N)=O)c(N)c23)cc1 [Compound 3a, 3-Amino-6-(furan-2-yl)-4-(4-methoxyphenyl)thieno[2,3-b]pyridine-2-carboxamide] | 18 mm | 31.2 mg/L (≈ 85.5 µM) | 12 mm | 13 mm | 31.2 mg/L (≈ 85.5 µM) | 15.6 mg/L (≈ 42.8 µM) | 10 mm | 15.6 mg/L (≈ 42.8 µM) | 15.6 mg/L (≈ 42.8 µM) | 2.26 ± 0.19 µM | 31.2 mg/L (≈ 85.5 µM) | 15 mm | 15 mm | – | – |
| NC(=O)c1sc2nc(-c3ccco3)cc(-c3cccs3)c2c1N [Compound 3b, 3-Amino-6-(furan-2-yl)-4-(thiophen-2-yl)thieno[2,3-b]pyridine-2-carboxamide] | 19 mm | 31.2 mg/L (≈ 91.5 µM) | 13 mm | 18 mm | 15.6 mg/L (≈ 45.8 µM) | 15.6 mg/L (≈ 45.8 µM) | 12 mm | 15.6 mg/L (≈ 45.8 µM) | 31.2 mg/L (≈ 91.5 µM) | 4.5 ± 0.32 µM | 31.2 mg/L (≈ 91.5 µM) | 13 mm | 18 mm | 253 °C | – |
| COc1ccc(-c2cc(-c3ccco3)nc3sc(C(N)=O)c(N=C4CCCCC4)c23)cc1 [Compound 4a, 3-(Cyclohexylideneamino)-6-(furan-2-yl)-4-(4-methoxyphenyl)thieno[2,3-b]pyridine-2-carboxamide] | 18 mm | 15.6 mg/L (≈ 35.1 µM) | 18 mm | 16 mm | 15.6 mg/L (≈ 35.1 µM) | 15.6 mg/L (≈ 35.1 µM) | 15 mm | 15.6 mg/L (≈ 35.1 µM) | 31.2 mg/L (≈ 70.1 µM) | 3.69 ± 0.15 µM | 15.6 mg/L (≈ 35.1 µM) | 13 mm | 15 mm | – | 13 mm |
| Nc1c2c(nc3c1sc1nc(-c4ccco4)cc(-c4cccs4)c13)CCCC2 [Compound 5b, 2-(Furan-2-yl)-4-(thiophen-2-yl)-6,7,8,9-tetrahydropyrido[3′,2′:4,5]thieno[3,2-b]quinolin-10-amine] | 15 mm | 31.2 mg/L (≈ 77.4 µM) | 13 mm | 16 mm | 15.6 mg/L (≈ 38.7 µM) | 15.6 mg/L (≈ 38.7 µM) | 12 mm | 15.6 mg/L (≈ 38.7 µM) | 15.6 mg/L (≈ 38.7 µM) | 16.7 ± 0.88 µM | 31.2 mg/L (≈ 77.4 µM) | 14 mm | 17 mm | 248 °C | – |
| COc1ccc(-c2cc(-c3ccco3)nc3sc4c(NC(=O)CNN)c5c(nc4c23)CCCC5)cc1 [Compound 7a, N-(2-(furan-2-yl)-4-(4-methoxyphenyl)-6,7,8,9-tetrahydropyrido[3′,2′:4,5]thieno[3,2-b]quinolin-10-yl)-2-hydrazinylacetamide] | 16 mm | 15.6 mg/L (≈ 31.3 µM) | 19 mm | 15 mm | 15.6 mg/L (≈ 31.3 µM) | 31.2 mg/L (≈ 62.6 µM) | 17 mm | 15.6 mg/L (≈ 31.3 µM) | 31.2 mg/L (≈ 62.6 µM) | 8.66 ± 0.61 µM | 15.6 mg/L (≈ 31.3 µM) | 11 mm | 11 mm | 278 °C | 18 mm |
| COc1ccc(-c2cc(-c3ccco3)nc3sc4c(NC(=O)CN5CCN(C)CC5)c5c(nc4c23)CCCC5)cc1 [Compound 9b, N-(2-(furan-2-yl)-4-(4-methoxyphenyl)-6,7,8,9-tetrahydropyrido[3′,2′:4,5]thieno[3,2-b]quinolin-10-yl)-2-(4-methylpiperazin-1-yl)acetamide] | 20 mm | 15.6 mg/L (≈ 27.5 µM) | 16 mm | 18 mm | 15.6 mg/L (≈ 27.5 µM) | 15.6 mg/L (≈ 27.5 µM) | 15 mm | 15.6 mg/L (≈ 27.5 µM) | 15.6 mg/L (≈ 27.5 µM) | 5.78 ± 0.46 µM | 15.6 mg/L (≈ 27.5 µM) | 18 mm | 19 mm | 158 to 159 °C | 14 mm |
| COc1ccc(-c2cc(-c3ccco3)nc3sc4c(N=Cc5cccs5)c5c(nc4c23)CCCC5)cc1 [Compound 12b, N-(2-(furan-2-yl)-4-(4-methoxyphenyl)-6,7,8,9-tetrahydropyrido[3′,2′:4,5]thieno[3,2-b]quinolin-10-yl)-1-(thiophen-2-yl)methanimine] | 18 mm | 15.6 mg/L (≈ 30 µM) | 16 mm | 15 mm | 15.6 mg/L (≈ 30 µM) | 15.6 mg/L (≈ 30 µM) | 15 mm | 15.6 mg/L (≈ 30 µM) | 15.6 mg/L (≈ 30 µM) | 4.6 ± 0.28 µM | 15.6 mg/L (≈ 30 µM) | 16 mm | 16 mm | 114 °C | 15 mm |
| CC1=NN=C(Nc2c3c(nc4c2sc2nc(-c5ccco5)cc(-c5cccs5)c24)CCCC3)C1 [Compound 14, 2-(furan-2-yl)-N-(5-methyl-4H-pyrazol-3-yl) -4-(thiophen-2-yl)-6,7,8,9-tetrahydropyrido[3′,2′:4,5]thieno[3,2-b]quinolin-10-amine] | 15 mm | 31.2 mg/L (≈ 64.6 µM) | 13 mm | 17 mm | 15.6 mg/L (≈ 32.3 µM) | 31.2 mg/L (≈ 64.6 µM) | 16 mm | 15.6 mg/L (≈ 32.3 µM) | 31.2 mg/L (≈ 64.6 µM) | 11.7 ± 0.93 µM | 15.6 mg/L (≈ 32.3 µM) | 10 mm | 12 mm | 274 °C | – |
| CNC(C)C1CCC(N)C(OC2C(N)CC(N)C(OC3OCC(C)(O)C(NC)C3O)C2O)O1 (stereo not shown) [Gentamicin, gentamicin, reference compound] | – | – | – | – | – | – | – | – | – | – | – | – | – | – | 15 mm |
